The subject of the experiment is p-IKKa levels in L363 (NIK translocated multiple myeloma) cells. In words: Assay 2: Effect of compounds on p-IKKa levels in L363 (NIK translocated multiple myeloma) cells. Conditions: Homo sapiens, L-363, 6 h, read-out: Assay 2 IC50 (nM), p-IKKa (Ser 176/180) in BAFF stimulated L363 cells with MG132, 6 h; average if tested more than once. The experiment is classed as cell-based. A digest of the protocol:
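L363 cells incubated overnight ± 250 ng/ml BAFF, then 6 h at 37 °C with compound (0.3% DMSO) ± 10 μM MG132. Lysates assayed for p-IKKa (Ser176/180) by AlphaLISA SureFire. IC50 from sigmoidal fit of % inhibition normalized to BAFF/MG132-stimulated and unstimulated controls.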

`Cc1cc(-c2cc([C@]3(O)CCN(C)C3=O)on2)nc(-c2ccnc(Nc3ccn(C)n3)n2)c1` [Example 100, (R)-3-Hydroxy-1-methyl-3-(3-(4-methyl-6-(2-((1-methyl-1H-pyrazol-3-yl)amino)pyrimidin-4-yl)pyridin-2-yl)isoxazol-5-yl)pyrrolidin-2-one]: the IC50 was under 50 nM. With `CN1CC[C@@](O)(c2cc(-c3cccc(-c4cc(Cl)nc(Nc5ccn(C)n5)n4)n3)no2)C1=O` [Example 101, (R)-3-(3-(6-(6-Chloro-2-((1-methyl-1H-pyrazol-3-yl)amino)pyrimidin-4-yl)pyridin-2-yl)isoxazol-5-yl)-3-hydroxy-1-methylpyrrolidin-2-one] the figure was over 500 nM; with `CN1CC[C@@](O)(c2nnc(-c3cccc(-c4ccnc(Nc5cnn(C)c5Cl)n4)n3)s2)C1=O` [Example 102, (S)-3-(5-(6-(2-((5-Chloro-1-methyl-1H-pyrazol-4-yl)amino)pyrimidin-4-yl)pyridin-2-yl)-1,3,4-thiadiazol-2-yl)-3-hydroxy-1-methylpyrrolidin-2-one], 50 to 500 nM; with `CN1CC[C@](O)(c2nnc(-c3cccc(-c4ccnc(Nc5cnn(C)c5Cl)n4)n3)s2)C1=O` [Example 103, (R)-3-(5-(6-(2-((5-chloro-1-methyl-1H-pyrazol-4-yl)amino)pyrimidin-4-yl)pyridin-2-yl)-1,3,4-thiadiazol-2-yl)-3-hydroxy-1-methylpyrrolidin-2-one], over 500 nM. As for `CN1CC(F)(F)[C@@](O)(c2cn(-c3cccc(-c4ccnc(Nc5cnn(C)c5Cl)n4)n3)nn2)C1=O` [Example 109, (R)-3-(1-(6-(2-((5-Chloro-1-methyl-1H-pyrazol-4-yl)amino)pyrimidin-4-yl)pyridin-2-yl)-1H-1,2,3-triazol-4-yl)-4,4-difluoro-3-hydroxy-1-methylpyrrolidin-2-one], the figure is under 50 nM; as for `CN1CC(F)(F)[C@@](O)(c2cc(-c3cccc(-c4ccnc(Nc5cnn6c5COCC6)n4)n3)no2)C1=O` [Example 110, (R)-3-(3-(6-(2-((6,7-Dihydro-4H-pyrazolo[5,1-c][1,4]oxazin-3-yl)amino)pyrimidin-4-yl)pyridin-2-yl)isoxazol-5-yl)-4,4-difluoro-3-hydroxy-1-methylpyrrolidin-2-one], under 50 nM; as for `Cc1ncccc1Nc1nccc(-c2cccc(-c3cc([C@]4(O)CCN(C)C4=O)no3)n2)n1` [Example 111, (R)-3-Hydroxy-1-methyl-3-(5-(6-(2-((2-methylpyridin-3-yl)amino)pyrimidin-4-yl)pyridin-2-yl)isoxazol-3-yl)pyrrolidin-2-one], under 50 nM. With `COc1ncc(Nc2nccc(-c3cccc(-c4cc([C@]5(O)CCN(C)C5=O)on4)n3)n2)cn1` [Example 112, (R)-3-Hydroxy-3-(3-(6-(2-((2-methoxypyrimidin-5-yl)amino)pyrimidin-4-yl)pyridin-2-yl)isoxazol-5-yl)-1-methylpyrrolidin-2-one] the figure was 50 to 500 nM; with `COc1nccc(Nc2nccc(-c3cccc(-c4cc([C@]5(O)CCN(C)C5=O)on4)n3)n2)n1` [Example 113, (R)-3-Hydroxy-3-(3-(6-(2-((2-methoxypyrimidin-4-yl)amino)pyrimidin-4-yl)pyridin-2-yl)isoxazol-5-yl)-1-methylpyrrolidin-2-one], under 50 nM.

In the case of `Cc1cc(Nc2nccc(-c3cccc(-n4cc([C@@]5(O)C(=O)N(C)CC5(F)F)nn4)n3)n2)ccn1` [Example 117, (R)-4,4-Difluoro-3-hydroxy-1-methyl-3-(1-(6-(2-((2-methylpyridin-4-yl)amino)pyrimidin-4-yl)pyridin-2-yl)-1H-1,2,3-triazol-4-yl)pyrrolidin-2-one], the IC50 is under 50 nM. With `CN1CC[C@@](O)(c2cn(-c3cccc(-c4ccnc(Nc5cnn6ccccc56)n4)n3)nn2)C1=O` [Example 121, (R)-3-Hydroxy-1-methyl-3-(1-(6-(2-(pyrazolo[1,5-a]pyridin-3-ylamino)pyrimidin-4-yl)pyridin-2-yl)-1H-1,2,3-triazol-4-yl)pyrrolidin-2-one] the figure was under 50 nM; with `COc1nn(CC(F)F)cc1Nc1nccc(-c2cccc(-n3cc([C@]4(O)CCN(C)C4=O)nn3)n2)n1` [Example 122, (R)-3-(1-(6-(2-((1-(2,2-Difluoroethyl)-3-methoxy-1H-pyrazol-4-yl)amino)pyrimidin-4-yl)pyridin-2-yl)-1H-1,2,3-triazol-4-yl)-3-hydroxy-1-methylpyrrolidin-2-one], under 50 nM. Regarding `CN1CC[C@@](O)(c2cc(-c3cccc(-c4ccnc(NCCn5ccc(N)n5)n4)n3)no2)C1=O` [Example 123, (R)-3-(3-(6-(2-((2-(3-Amino-1H-pyrazol-1-yl)ethyl)amino)pyrimidin-4-yl)pyridin-2-yl)isoxazol-5-yl)-3-hydroxy-1-methylpyrrolidin-2-one], the IC50 is over 500 nM. With `CN1CC[C@@](O)(c2cc(-c3cccc(-c4ccnc(Nc5cnn(C6CC6)c5)n4)n3)no2)C1=O` [Example 124, (R)-3-(3-(6-(2-((1-Cyclopropyl-1H-pyrazol-4-yl)amino)pyrimidin-4-yl)pyridin-2-yl)isoxazol-5-yl)-3-hydroxy-1-methylpyrrolidin-2-one] the figure was under 50 nM.

In the case of `CN1CC[C@@](O)(c2cc(-c3cccc(-c4ccnc(Nc5cnn(CCN)c5)n4)n3)no2)C1=O` [Example 125, (R)-3-(3-(6-(2-((1-(2-Aminoethyl)-1H-pyrazol-4-yl)amino)pyrimidin-4-yl)pyridin-2-yl)isoxazol-5-yl)-3-hydroxy-1-methylpyrrolidin-2-one], the IC50 lay in the range of 50 to 500 nM. Regarding `CN(C)CCn1ccc(Nc2nccc(-c3cccc(-c4cc([C@]5(O)CCN(C)C5=O)on4)n3)n2)n1` [Example 126, (R)-3-(3-(6-(2-((1-(2-(Dimethylamino)ethyl)-1H-pyrazol-3-yl)amino)pyrimidin-4-yl)pyridin-2-yl)isoxazol-5-yl)-3-hydroxy-1-methylpyrrolidin-2-one], the IC50 is under 50 nM.

For `CN1CC[C@@](O)(c2cc(-c3cccc(-c4ccnc(Nc5ccnn6ccnc56)n4)n3)no2)C1=O` [Example 127, (R)-3-Hydroxy-3-(3-(6-(2-(imidazo[1,2-b]pyridazin-8-ylamino)pyrimidin-4-yl)pyridin-2-yl)isoxazol-5-yl)-1-methylpyrrolidin-2-one], the IC50 was 50 to 500 nM.

For `Cc1nccc(Nc2nccc(-c3cccc(-c4cc([C@]5(O)CCN(C)C5=O)on4)n3)n2)c1C` [Example 128, (R)-3-(3-(6-(2-((2,3-Dimethylpyridin-4-yl)amino)pyrimidin-4-yl)pyridin-2-yl)isoxazol-5-yl)-3-hydroxy-1-methylpyrrolidin-2-one], the IC50 was under 50 nM. Regarding `Cc1cc(Nc2nccc(-c3cccc(-c4cc([C@]5(O)CCN(C)C5=O)on4)n3)n2)n(CCO)n1` [Example 129, (R)-3-Hydroxy-3-(3-(6-(2-((1-(2-hydroxyethyl)-3-methyl-1H-pyrazol-5-yl)amino)pyrimidin-4-yl)pyridin-2-yl)isoxazol-5-yl)-1-methylpyrrolidin-2-one], the IC50 lay in the range of 50 to 500 nM. As for `CN(C)CCOc1ccc(Nc2nccc(-c3cccc(-c4cc([C@]5(O)CCN(C)C5=O)on4)n3)n2)nn1` [Example 130, (R)-3-(3-(6-(2-((6-(2-(Dimethylamino)ethoxy)pyridazin-3-yl)amino)pyrimidin-4-yl)pyridin-2-yl)isoxazol-5-yl)-3-hydroxy-1-methylpyrrolidin-2-one], the figure is 50 to 500 nM; as for `Cc1ncnn1-c1ccc(Nc2nccc(-c3cccc(-c4cc([C@]5(O)CCN(C)C5=O)on4)n3)n2)nc1` [Example 131, (R)-3-Hydroxy-1-methyl-3-(3-(6-(2-((5-(5-methyl-1H-1,2,4-triazol-1-yl)pyridin-2-yl)amino)pyrimidin-4-yl)pyridin-2-yl)isoxazol-5-yl)pyrrolidin-2-one], 50 to 500 nM; as for `CN1C(=O)[C@](O)(c2cc(-c3cccc(-c4ccnc(Nc5cnn6c5CCC6)n4)n3)no2)[C@H]2C[C@H]21` [Example 133, (1R,4R,5S)-4-(3-(6-(2-((5,6-Dihydro-4H-pyrrolo[1,2-b]pyrazol-3-yl)amino)pyrimidin-4-yl)pyridin-2-yl)isoxazol-5-yl)-4-hydroxy-2-methyl-2-azabicyclo[3.1.0]hexan-3-one], under 50 nM. In the case of `CN1CC[C@@](O)(c2cc(-c3cccc(-c4ccnc(Nc5cnn6c5CCC6)n4)n3)on2)C1=O` [Example 134, (R)-3-(5-(6-(2-((5,6-Dihydro-4H-pyrrolo[1,2-b]pyrazol-3-yl)amino)pyrimidin-4-yl)pyridin-2-yl)isoxazol-3-yl)-3-hydroxy-1-methylpyrrolidin-2-one], the IC50 was under 50 nM.

With `COCn1ncc(Nc2nccc(-c3cccc(-c4cc([C@]5(O)CCN(C)C5=O)no4)n3)n2)n1` [Example 135, (R)-3-Hydroxy-3-(5-(6-(2-((2-(methoxymethyl)-2H-1,2,3-triazol-4-yl)amino)pyrimidin-4-yl)pyridin-2-yl)isoxazol-3-yl)-1-methylpyrrolidin-2-one], the IC50 was under 50 nM. For `COc1cc(-c2ccnc(Nc3cnn(C)c3)n2)nc(-n2cc([C@]3(O)CCN(C)C3=O)nn2)c1` [Example 136, (R)-3-Hydroxy-3-(1-(4-methoxy-6-(2-((1-methyl-1H-pyrazol-4-yl)amino)pyrimidin-4-yl)pyridin-2-yl)-1H-1,2,3-triazol-4-yl)-1-methylpyrrolidin-2-one], the IC50 was under 50 nM. With `CN1CC[C@@](O)(c2cn(-c3cc(C(F)F)cc(-c4ccnc(Nc5cnn(C)c5)n4)n3)nn2)C1=O` [Example 137, (R)-3-(1-(4-(Difluoromethyl)-6-(2-((1-methyl-1H-pyrazol-4-yl)amino)pyrimidin-4-yl)pyridin-2-yl)-1H-1,2,3-triazol-4-yl)-3-hydroxy-1-methylpyrrolidin-2-one] the figure was under 50 nM.

Values taken from US20250282768A1 (Janssen Pharmaceutica NV, priority 2022, published 2025).
